Results as given in patent US20240158446A1, “CYCLIC COMPOUND HAVING SELECTIVE INHIBITORY ACTION ON KRAS OVER HRAS AND NRAS” (CHUGAI SEIYAKU KABUSHIKI KAISHA, priority 2021, published 2024).
Where two headings read alike, the source gives them in different places. Where a SMILES comes first, the peptide text is derived from it. Bridges are numbered along the chain shown (N, C = ends). [ ]: non-standard residue; d: D form. The star is where a group is joined. hPhe(3-Cl-4-CF3) = N[C@@H](CCc1ccc(C(F)(F)F)c(Cl)c1)C(=O)O; NPrPhe(4-CF3) = CCCN[C@@H](Cc1ccc(C(F)(F)F)cc1)C(=O)O; NMeGly(cPent) = CN[C@H](C(=O)O)C1CCCC1; NMeD = CN[C@@H](CC(=O)O)C(=O)O; NMeNva = CCC[C@H](NC)C(=O)O; Morpholide = C1CN(*)CCO1; Ac4c = NC1(C(=O)O)CCC1; NPrGly = CCCNCC(=O)O; Sar = CNCC(=O)O

How the values were obtained:
[1] = target: GDP-bound KRAS wild-type protein (Homo sapiens, UniProt P01116); assay: Binding to KRAS by surface plasmon resonance (SPR), Single Cycle Kinetics; conditions: GDP-bound KRAS wild-type protein, read-out: KRAS KD
[2] = target: GDP-bound NRAS wild-type protein (Homo sapiens, UniProt P01111); assay: Binding to NRAS by surface plasmon resonance (SPR), Single Cycle Kinetics
[3] = target: GDP-bound HRAS wild-type protein (Homo sapiens, UniProt P01112); assay: Binding to HRAS by surface plasmon resonance (SPR), Single Cycle Kinetics
[4] = tested on: human lung cancer strain NCI-H441;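 also: cell proliferation inhibition after four days measured by CellTiter-Glo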
[5] = SPR Single Cycle Kinetics, 1:1 binding model
[6] = SPR, GDP-bound NRAS wild-type protein vs GDP-bound KRAS wild-type protein
[7] = SPR, GDP-bound HRAS wild-type protein vs GDP-bound KRAS wild-type protein
[8] = SPR, Single Cycle Kinetics, 1:1 binding model
[9] = SPR, GDP-bound NRAS wild-type protein vs GDP-bound KRAS wild-type protein, KD ratio class
[10] = SPR, GDP-bound HRAS wild-type protein vs GDP-bound KRAS wild-type protein, KD ratio class

Chain of GDP-bound NRAS wild-type protein (P01111 whole entry): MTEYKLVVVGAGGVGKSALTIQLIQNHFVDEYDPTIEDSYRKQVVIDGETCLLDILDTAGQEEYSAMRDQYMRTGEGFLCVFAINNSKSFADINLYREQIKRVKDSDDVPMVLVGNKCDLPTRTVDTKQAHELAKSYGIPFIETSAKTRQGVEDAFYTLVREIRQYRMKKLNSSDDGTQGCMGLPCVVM
Chain of GDP-bound KRAS wild-type protein (P01116 whole entry): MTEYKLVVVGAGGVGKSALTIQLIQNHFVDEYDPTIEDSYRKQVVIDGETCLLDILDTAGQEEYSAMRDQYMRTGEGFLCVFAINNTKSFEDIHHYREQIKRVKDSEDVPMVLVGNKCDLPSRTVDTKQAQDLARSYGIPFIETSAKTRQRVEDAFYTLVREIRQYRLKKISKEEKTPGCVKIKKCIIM
Chain of GDP-bound HRAS wild-type protein (P01112 whole entry): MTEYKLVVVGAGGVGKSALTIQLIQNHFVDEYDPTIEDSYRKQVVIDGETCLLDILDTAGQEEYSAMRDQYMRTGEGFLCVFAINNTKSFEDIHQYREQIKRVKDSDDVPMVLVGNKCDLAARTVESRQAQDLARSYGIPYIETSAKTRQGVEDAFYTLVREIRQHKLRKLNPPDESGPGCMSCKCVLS

IC50 [4] [nM] | Kd ([1]; SPR, Single Cycle Kinetics) [nM] | Kd [1, 8] [nM] | SMILES | NRAS/KRAS (ratio of KD value for NRAS to KD value for KRAS) [2, 6] | HRAS/KRAS (ratio of KD value for HRAS to KD value for KRAS) [3, 7] | NRAS/KRAS (ratio of KD value for NRAS to KD value for KRAS) [2, 9] | HRAS/KRAS (ratio of KD value for HRAS to KD value for KRAS) [3, 10] | also measured
61 |  |  | CCC(CC)[C@H]1C(=O)N(C)[C@H](C(=O)N(C)C)CC(=O)N(C)[C@@H](COC)C(=O)N[C@@H]([C@@H](C)CC)C(=O)N(C)CC(=O)N(C)[C@H]2C/C=C\CCN(C2=O)[C@@H](Cc2ccc(C(F)F)cc2)C(=O)N(C)CC(=O)N[C@@H](CCc2ccc(Cl)c(Cl)c2)C(=O)N2C[C@H](OC3CCCC3)C[C@H]2C(=O)NC2(CC(C)(C)C2)C(=O)N1C [PP2649] |  |  |  |  | Kd [1, 5]: 0.4 nM; NRAS/KRAS (ratio of KD value with respect to GDP-bound NRAS wild-type protein to KD value with respect to KRAS) ([2]; SPR KD ratio NRAS/KRAS, class symbols): AA (a compound having 20 or more is denoted as AA); HRAS/KRAS (ratio of KD value with respect to GDP-bound HRAS wild-type protein to KD value with respect to KRAS) ([3]; SPR KD ratio HRAS/KRAS, class symbols): A (a compound having 10 or more and less than 20 is denoted as A)
21.3 | 0.23 |  | CCOC[C@H]1C(=O)N[C@@H]([C@@H](C)CC)C(=O)N(C)CC(=O)N(C)[C@H]2C/C=C\CCN(C2=O)[C@@H](Cc2ccc(C)cc2)C(=O)N(C)CC(=O)N[C@@H](CCc2cc(F)c(C(F)(F)F)c(F)c2)C(=O)N2C[C@H](OCC)C[C@H]2C(=O)NC2(CC(C)(C)C2)C(=O)N(C)[C@@H](C2CCCC2)C(=O)N(C)[C@H](C(=O)N(CC)CC)CC(=O)N1C [PP2408] | A (a compound having 10 or more and less than 20 is denoted as A) | A (a compound having 10 or more and less than 20 is denoted as A) |  |  | 
31.4 |  |  | CC[C@H](C)[C@@H]1NC(=O)[C@H](CC(C)C)N(C)C(=O)C[C@@H](C(=O)N2CCOCC2)N(C)C(=O)[C@H](C2CCCC2)N(C)C(=O)C2(CCCC2)NC(=O)[C@@H]2[C@@H](O)CCN2C(=O)[C@H](CCc2cc(F)c(C(F)(F)F)c(F)c2)NC(=O)CN(C)C(=O)[C@H](Cc2ccc(C(F)(F)F)cc2)N2CCCC[C@@H](C2=O)N(C)C(=O)CN(C)C1=O [PP0558] |  |  |  |  | Kd [1, 5]: 0.067 nM; NRAS/KRAS (ratio of KD value with respect to NRAS to KD value with respect to KRAS) [2, 6]: B (a compound having 3 or more and less than 10 is denoted as B); HRAS/KRAS (ratio of KD value with respect to HRAS to KD value with respect to KRAS) [3, 7]: B (a compound having 3 or more and less than 10 is denoted as B)
7.5 |  | 0.032 | CCO[C@@H]1C[C@H]2C(=O)NC3(CC(F)(F)C3)C(=O)N(C)[C@@H](C3CCCC3)C(=O)N(C)[C@H](C(=O)N(C)C)CC(=O)N(C)[C@@H](CC)C(=O)N[C@@H]([C@@H](C)CC)C(=O)N(C)CC(=O)N(C)[C@H]3C/C=C\CCN(C3=O)[C@@H](Cc3ccc(C(F)(F)F)cc3)C(=O)N(C)CC(=O)N[C@@H](CCc3cc(F)c(C(F)(F)F)c(F)c3)C(=O)N2C1 [PP1274, (2S,8S,12R,14S,20S,23S,27S,30S,36S,38Z)-20-cyclopentyl-8-[2-[3,5-difluoro-4-(trifluoromethyl)phenyl]ethyl]-12-ethoxy-27-ethyl-1′,1′-difluoro-N,N,4,19,22,26,32,35-octamethyl-30-[(1S)-1-methylpropyl]-3,6,9,15,18,21,25,28,31,34,42-undecaoxo-2-[[4-(trifluoromethyl)phenyl]methyl]spiro[1,4,7,10,16,19,22,26,29,32,35-undecazatricyclo[34.5.1.0^10,14]dotetracont-38-ene-17,3′-cyclobutane]-23-carboxamide] |  |  | A (a compound having 10 or more and less than 20 is denoted as A) | A (a compound having 10 or more and less than 20 is denoted as A) | 

The remaining lines, values behind:

SMILES | IC50 [4] [nM] | Kd ([1]; SPR, Single Cycle Kinetics) [nM] | Kd [1, 8] [nM] | NRAS/KRAS (ratio of KD value for NRAS to KD value for KRAS) [2, 6] | HRAS/KRAS (ratio of KD value for HRAS to KD value for KRAS) [3, 7] | NRAS/KRAS (ratio of KD value for NRAS to KD value for KRAS) [2, 9] | HRAS/KRAS (ratio of KD value for HRAS to KD value for KRAS) [3, 10] | also measured
CCCN1CC(=O)NC2(CCC2)C(=O)N(C)[C@@H](C2CCCC2)C(=O)N(C)[C@H](C(=O)N(C)C)CC(=O)N(C)[C@@H](CC)C(=O)N[C@@H]([C@@H](C)CC)C(=O)N(C)CC(=O)N(C)[C@H]2C/C=C\CCN(C2=O)[C@@H](Cc2ccc(C(F)(F)F)cc2)C(=O)N(C)CC(=O)N[C@@H](CCc2cc(F)c(C(F)(F)F)c(F)c2)C1=O [PP1141] | 424 | 0.32 |  | AA (a compound having 20 or more is denoted as AA) | A (a compound having 10 or more and less than 20 is denoted as A) |  |  | 
CCC[C@H]1C(=O)N[C@@H]([C@@H](C)CC)C(=O)N(C)CC(=O)N(CCC)CC(=O)N(CCC)[C@@H](Cc2ccc(C(F)(F)F)cc2)C(=O)N(C)CC(=O)N[C@@H](CCc2ccc(C(F)(F)F)c(Cl)c2)C(=O)N2CCC[C@H]2C(=O)NC2(CCC2)C(=O)N(C)[C@@H](C2CCCC2)C(=O)N(C)[C@H](C(=O)N2CCOCC2)CC(=O)N1C [PP1949] ([NMeNva]I[Sar][NPrGly][NPrPhe(4-CF3)][Sar][hPhe(3-Cl-4-CF3)]P[Ac4c][NMeGly(cPent)][NMeD]-Morpholide; lactam N-11) |  | 0.92 |  |  |  |  |  | NRAS/KRAS (KD ratio) ([2]; ratio of KD for GDP-bound NRAS wild-type protein to KD for KRAS, SPR): C (A compound having a KD ratio of 0.1 or more and less than 3 is denoted as C); HRAS/KRAS (KD ratio) ([3]; ratio of KD for GDP-bound HRAS wild-type protein to KD for KRAS, SPR): C (A compound having a KD ratio of 0.1 or more and less than 3 is denoted as C); IC50 ([4]; read-out: NCI-H441 IC50, NCI-H441 cell proliferation, 4 days, CellTiter-Glo): 9.3 nM
CCO[C@@H]1C[C@H]2C(=O)NC3(CCC3)C(=O)N(C)[C@@H](C3CCCC3)C(=O)N(C)[C@H](C(=O)N(C)C)CC(=O)N(C)[C@@H](CC3CCCC3)C(=O)N[C@@H]([C@@H](C)CC)C(=O)N(C)CC(=O)N(C)[C@H]3C/C=C\CCN(C3=O)[C@@H](Cc3ccc(C(F)(F)F)cc3)C(=O)N(C)CC(=O)N[C@@H](CCc3ccc4sccc4c3)C(=O)N2C1 [PP1261] | 76.8 |  | 0.44 |  |  | A (a compound having 10 or more and less than 20 is denoted as A) | A (a compound having 10 or more and less than 20 is denoted as A) | 
CC[C@H](C)[C@@H]1NC(=O)[C@H](CC)N(C)C(=O)C[C@@H](C(=O)N(C)C)N(C)C(=O)[C@H](C2CCCC2)N(C)C(=O)C2(CCC2)NC(=O)[C@@H]2C[C@@H](C(F)(F)F)CN2C(=O)[C@H](CCc2cc(F)c(C(F)(F)F)c(F)c2)NC(=O)CN(C)C(=O)[C@H](Cc2ccc(C(F)(F)F)cc2)N2CC/C=C\C[C@@H](C2=O)N(C)C(=O)CN(C)C1=O [PP1133, (2S,8S,12R,14S,20S,23S,27S,30S,36S,38Z)-20-cyclopentyl-8-[2-[3,5-difluoro-4-(trifluoromethyl)phenyl]ethyl]-27-ethyl-N,N,4,19,22,26,32,35-octamethyl-30-[(1S)-1-methylpropyl]-3,6,9,15,18,21,25,28,31,34,42-undecaoxo-12-(trifluoromethyl)-2-[[4-(trifluoromethyl)phenyl]methyl]spiro[1,4,7,10,16,19,22,26,29,32,35-undecazatricyclo[34.5.1.0^10,14]dotetracont-38-ene-17,1′-cyclobutane]-23-carboxamide] | 16.5 | 0.05 |  | A (a compound having 10 or more and less than 20 is denoted as A) | A (a compound having 10 or more and less than 20 is denoted as A) |  |  | 
CCO[C@@H]1C[C@H]2C(=O)NC3(CCC3)C(=O)N(C)[C@@H](C3CCCC3)C(=O)N(C)[C@H](C(=O)N(C)C)CC(=O)N(C)[C@@H](CC)C(=O)N[C@@H]([C@@H](C)CC)C(=O)N(C)CC(=O)N(C)[C@H]3C/C=C\CCN(C3=O)[C@@H](Cc3ccc(C(F)(F)F)cc3)C(=O)N(C)CC(=O)N[C@@H](CCc3ccc(C(F)(F)F)c(C)c3)C(=O)N2C1 [PP1265] | 14.1 |  | 0.17 |  |  | A (a compound having 10 or more and less than 20 is denoted as A) | B (a compound having 3 or more and less than 10 is denoted as B) | 
